We go through six compounds from US20060142271A1, “Novel lapacho compounds and methods of use thereof” (priority 2002, published 2006).

Where two headings read alike, the source gives them in different places.

The test system of data set [1] is colon cancer cell line SW480. Kind of data set: Cancer cell line colony survival assay, SW480. In kind it is cell-based, human. The settings on record: Homo sapiens. The procedure:
(§1) HaCaT keratinocyte proliferation assay and LDH release were described previously in full detail (Muller et al. J. Med. Chem. 39: 3132-3138, 1996; Müller et al. J. Med. Chem. 37: 1660-1669, 1994). For the cancer cell line studies, exponentially growing cells were seeded at 1,000 cells per well in six-well plates and allowed to attach for 24 h. Compounds of the invention or β-lapachone, solubflized in DMSO, were added to the wells in micromolar concentrations. Control wells were treated with equivalent volumes of DMSO. After 4 h the supernatant was removed and fresh medium was added. Cultures were observed daily for 10-15 days and then were fixed and stained. Colonies of greater than 30 cells were scored as survivors.

Data set [2] has as its system HaCaT cells. The format is cell-based, human. The note with it: for LDH (mU): human, 2 μM. The procedure: as §1
The cytotoxicity of naphthoquinones has been thought to result, at least in part, from reactive oxygen species, generated during redox cycling between the […] and reduction products (Munday, R., Free Radic. Biol. Med., 22, 689-695, 1997), which cause peroxidative damage to membrane lipids. To assess the correlation of keratinocyte growth inhibition with membrane damage, the release of lactate dehydrogenase from the treated cells was also quantitated.

Data set [3] has as its system breast cancer cell line MCF7. Kind of data set: Cancer cell line colony survival assay, MCF7. The note with it: Homo sapiens. In kind it is cell-based, human. The procedure: as §1
The test system of data set [4] is HaCaT cells. Kind of data set: HaCaT keratinocyte proliferation assay (cell counting). The settings on record: for inhibition of HaCaT cell proliferation (in words): HaCaT cells; for IC50: Homo sapiens. In kind it is cell-based, human. As for the experimental part:
Anthralin, an antipsoriatic drug, was used as a positive control. Antiproliferative activity was measured directly by counting the dispersed cells under a phase-contrast microscope.
as §1, with “survivors. […]” for “survivors.”

The test system of data set [5] is colon cancer cell line DLD1. Put plainly: Cancer cell line colony survival assay, DLD1. The note with it: Homo sapiens. In kind it is cell-based, human. As for the experimental part: as §1
Data set [6] deals with human keratinocyte cell line HaCaT. The settings on record: Müller et al., J. Nat. Prod. 62 (1999); cited from earlier work.
In data set [7] the test system is cancer cell lines and normal cells. The settings on record: Li et al., PNAS 2003; cited from earlier work.
The subject of another data set is human cancer cell lines. The settings on record: wide spectrum of human cancer cell lines; read-out: antineoplastic activity against human cancer cell lines (IC50); cited from earlier work.
The subject of data set [8] is normal fresh or proliferating human PBMC. The note with it: cited from earlier work.
Where [9] appears, read: colon cancer cell line SW480, 4 h exposure, colonies after 10-15 days, read-out: AA in Cancer Cell Lines IC50 (μM) SW480.
[10] abbreviates: breast cancer cell line MCF7, 4 h exposure, colonies after 10-15 days, read-out: AA in Cancer Cell Lines IC50 (μM) MCF7.
[11] abbreviates: antiproliferative activity against HaCaT cells, N = 3, read-out: AA in HaCaT Cells IC50.
The mark [12] stands for this setting: DLD-1, colon cancer cell line DLD1, 4 h exposure, colonies after 10-15 days, read-out: AA in Cancer Cell Lines IC50 (μM) DLD1.
Where [13] appears, read: HaCaT, read-out: AA in HaCaT Cells IC50 (μM).

As usually defined, the IC50 is the concentration that inhibits the measured activity by half. In general, melting point refers to the temperature of the solid-liquid transition. For the compound `O=C(c1ccc(O)c(O)c1)c1cc2c(s1)C(=O)c1ccccc1C2=O` [Compound 65c, 2-(3,4-Dihydroxybenzoyl)-naphtho[2,3-b]thiophene-4,9-dione], the melting point was 272 to 274 °C (dec.). The IC50 in [1] (setting [9]) worked out at 20 µM. In the data set with HaCaT cells [2], the “LDH release compared to vehicle control (in words)” value is reported as “without significant elevation of LDH release over the vehicle control” and the “LDH (mU)” value came out at 118 mU. Also, the half-maximal inhibitory concentration (IC50) in [3] (setting [10]) was determined as 8 µM. Further, in the data set with HaCaT cells [4], the “inhibition of HaCaT cell proliferation (in words)” value is “inhibited cell proliferation at concentrations comparable to β-lapachone and the furan analogs”. In addition, in the data set on HaCaT cells [4] (setting [11]), the IC50 was 1.5 µM. Also, in [5] (setting [12]), the IC50 was determined as 11 µM.

In turn, `O=C(c1ccccc1)c1cc2cc3ccccc3cc2o1` [Compound 74a, Naphtho[2,3-b]furan-2-yl-phenylmethanone] showed a melting point of 140 to 142 °C. Also, the IC50 in data set [1] (setting [9]) came to 12 µM. Also, the “LDH (mU)” value with HaCaT cells [2] was found to be 142 mU. In data set [3] (setting [10]), the IC50 was at most 1 µM. Also, in the data set with HaCaT cells [4] (setting [11]), the IC50 stood at 1.9 µM. For the same compound, in [5] (setting [12]), the IC50 was determined as 7.6 µM.

As for `CC(C)=CCC1=C(O)C(=O)c2ccccc2C1=O` [lapachol], the “inhibition of keratinocyte growth in HaCaT model (in words)” value (shortened to “inhibition of keratinocyte growth”) in data set [6] is “relatively inactive”.

For `CC1(C)CCC2=C(O1)c1ccccc1C(=O)C2=O` [β-lapachone, reference compound], the IC50 in data set [1] (SW480, read-out: AA in Cancer Cell Lines IC50 (μM) SW480) is 4 µM; in data set [3] (MCF7, read-out: AA in Cancer Cell Lines IC50 (μM) MCF7) it was at most 1 µM; in the data set with human cancer cell lines it was 1 to 10 µM; with HaCaT cells [4] (setting [13]), 0.7 µM; in data set [5] (DLD-1, read-out: AA in Cancer Cell Lines IC50 (μM) DLD1), 4 µM. For the same compound, in the data set on HaCaT cells [2], the “LDH release compared to vehicle control (in words)” value is “significant LDH release as compared to vehicle”. The “LDH (mU)” value in the data set with HaCaT cells [2] is 329 mU. In addition, in data set [6], the “inhibition of keratinocyte growth” value is listed as “inhibition of keratinocyte growth comparable to the antipsoriatic drug anthralin”. The “induction of apoptosis in cancer versus normal cells” value in [7] was “induces apoptosis only in cancer cell lines and not in normal cells”. For the same compound, the “inhibition of HaCaT cell proliferation (in words)” value with HaCaT cells [4] is reported as “inhibited cell proliferation”. The “cytotoxic effects on normal human PBMC” value in data set [8] is “No cytotoxic effects were observed”.

In the case of `CC1(C)CCC2=C(O1)C(=O)c1ccccc1C2=O` [α-lapachone, reference compound], the “inhibition of keratinocyte growth” value in [6] was “relatively inactive”. Also, the half-inhibitory concentration (IC50) with HaCaT cells [4] (setting [13]) was 10 µM.

In the case of `O=C(c1ccccc1)c1cc2cc3ccccc3cc2s1` [Compound 64a, Naphtho[2,3-b]thiophen-2-yl-phenylmethanone], the melting point fell in the range of 164 to 165 °C. Besides, the concentration for half-maximal inhibition (IC50) in data set [1] (setting [9]) is at most 1 µM. In addition, the “LDH (mU)” value with HaCaT cells [2] is on record as 122 mU. Further, the IC50 in data set [3] (setting [10]) is at most 1 µM. For the same compound, the IC50 with HaCaT cells [4] (setting [11]) was determined as 0.3 µM. For the same compound, the IC50 in data set [5] (setting [12]) was 1.5 µM.
